Measured values: US20240246946A1, “MODULATORS OF TREX1” (Constellation Pharmaceuticals, Inc., priority 2021, published 2024)

Legend:
[1] = target: T1, full length mouse TREX1 (Mus musculus, UniProt Q91XB0); assay: mTREX1 Biochemical Assay (fluorescence, dsDNA substrate degradation); settings: biochemical, read-out: mTREX1 IC50
T1 construct: N-terminally His-Tev tagged full length mouse TREX1; made in house; host or cells: E. coli
T1 sequence (Q91XB0 1-314): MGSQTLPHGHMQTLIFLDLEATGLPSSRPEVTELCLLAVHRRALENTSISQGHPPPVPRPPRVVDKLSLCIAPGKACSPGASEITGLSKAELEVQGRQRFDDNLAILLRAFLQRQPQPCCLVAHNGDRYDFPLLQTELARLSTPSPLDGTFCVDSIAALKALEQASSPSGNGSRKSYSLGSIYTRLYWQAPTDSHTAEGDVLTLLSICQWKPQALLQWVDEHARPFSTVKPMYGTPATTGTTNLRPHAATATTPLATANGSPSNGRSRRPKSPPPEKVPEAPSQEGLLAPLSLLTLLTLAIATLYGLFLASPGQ
Experimental: (§1) Degradation of the dsDNA liberates free fluorophore to produce a fluorescent signal. Specifically, 7.5 μL of N-terminally His-Tev tagged full length mouse TREX1 (expressed in E. coli and purified in house) in reaction buffer (50 mM Tris, 150 mM NaCl, 2 mM DTT, 0.1 mg/mL BSA, 0.01% (w/v) Tween-20, 5 mM MgCl2, pH 7.4) was added to a 384-well Black ProxiPlate Plus (PerkinElmer) which already contained compound (150 nL) at varying concentrations as a 10 point dose-response in DMSO. The plate was incubated at 25° C. for 4 hours. Reactions were initiated by adding 7.5 μL of dsDNA substrate (Strand A: 5′ TEX615/GCT AGG CAG 3′; Strand B: 5′ CTG CCT AGC/IAbRQSp (Integrated DNA Technologies)) in reaction buffer. Final concentrations were 6 pM TREX1, 60 nM dsDNA substrate in reaction buffer with 1.0% DMSO (v/v). After 18 hours at 25° C., reactions were quenched by the addition of 2 μL of 500 mM EDTA.

[2] = target: T2, full length human TREX1 (Homo sapiens, UniProt Q9NSU2); assay: hTREX1 Biochemical Assay (fluorescence, dsDNA substrate degradation); settings: biochemical, read-out: hTREX1 IC50
T2 construct: N-terminally His-Tev tagged full length human TREX1; made in house; host or cells: E. coli
T2 sequence (Q9NSU2 1-314): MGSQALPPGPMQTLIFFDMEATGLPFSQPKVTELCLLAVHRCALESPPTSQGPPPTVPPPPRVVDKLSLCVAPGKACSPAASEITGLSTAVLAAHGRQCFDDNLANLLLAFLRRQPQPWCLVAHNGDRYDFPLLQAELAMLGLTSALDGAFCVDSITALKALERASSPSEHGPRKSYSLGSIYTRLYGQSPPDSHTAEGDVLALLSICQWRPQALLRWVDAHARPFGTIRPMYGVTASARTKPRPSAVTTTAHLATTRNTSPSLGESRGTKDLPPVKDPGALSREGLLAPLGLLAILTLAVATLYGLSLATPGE
Experimental: as §1, with “length human” for “length mouse”, “were 4” for “were 6”

Compound | IC50 [1] [nM] | IC50 [2] [nM]
CC(c1nc(C(=O)Nc2cnoc2)c(O)c(=O)n1C)C(c1ccccc1C#N)c1ccnn1C (single isomer, unassigned) [Example 1 D2E1] | > 10 | > 10
CC(c1nc(C(=O)Nc2cnoc2)c(O)c(=O)n1C)C(c1cnn(C)c1)c1ccccc1C#N (single isomer, unassigned) [Example 2 D2E1] | > 10 | > 10
Cc1nn(C)cc1C(c1ccccc1C#N)C(C)c1nc(C(=O)Nc2cnoc2)c(O)c(=O)n1C (single isomer, unassigned) [Example 3 D1E2] | > 10 | > 10
Cc1nn(C)cc1C(c1ccccc1C#N)C(C)c1nc(C(=O)Nc2cnoc2)c(O)c(=O)n1C (single isomer, unassigned) [Example 3 D2E1] | > 10 | > 10
Cc1c(C(c2ccccc2C#N)C(C)c2nc(C(=O)Nc3cnoc3)c(O)c(=O)n2C)cnn1C (single isomer, unassigned) [Example 4 D1E2] | > 10 | > 10
Cc1c(C(c2ccccc2C#N)C(C)c2nc(C(=O)Nc3cnoc3)c(O)c(=O)n2C)cnn1C (single isomer, unassigned) [Example 4 D2E1] | > 10 | > 10
Cc1ccc(C(c2ccccc2C#N)C(C)c2nc(C(=O)Nc3cnoc3)c(O)c(=O)n2C)cn1 (single isomer, unassigned) [Example 5 D1E1] | > 10 | > 10
Cc1cc(C(c2ccccc2C#N)C(C)c2nc(C(=O)Nc3cnoc3)c(O)c(=O)n2C)ccn1 (single isomer, unassigned) [Example 6 D2E1] | > 10 | > 10
CC(c1nc(C(=O)Nc2cnoc2)c(O)c(=O)n1C)C(c1cnn(C)c1)c1cccnc1C#N (single isomer, unassigned) [Example 7 D1E2] | > 10 | > 10
COC(C)(C)Cn1cc(C(c2ccccc2C#N)C(C)c2nc(C(=O)Nc3cnoc3)c(O)c(=O)n2C)cn1 (single isomer, unassigned) [Example 37 D2E2] |  | > 10
Cc1cnn(C(c2ccccc2C#N)C(C)c2nc(C(=O)Nc3cnoc3)c(O)c(=O)n2C)c1 (single isomer, unassigned) [Example 47 D1E1] |  | < 1
Cc1cnn(C(c2ccccc2C#N)C(C)c2nc(C(=O)Nc3cnoc3)c(O)c(=O)n2C)c1 (single isomer, unassigned) [Example 47 D1E2] |  | > 10
CCn1cc(C(c2ccc(F)cc2C#N)C(C)c2nc(C(=O)Nc3cnoc3)c(O)c(=O)n2C)c(C)n1 (single isomer, unassigned) [Example 55 D2E1] |  | > 10
Cc1ncc(C(c2ccccc2C#N)C(C)c2nc(C(=O)Nc3cnoc3)c(O)c(=O)n2C)cn1 (single isomer, unassigned) [Example 67 D1E1] |  | > 10
Cc1ncc(C(c2ccccc2C#N)C(C)c2nc(C(=O)Nc3cnoc3)c(O)c(=O)n2C)cn1 (single isomer, unassigned) [Example 67 D2E1] |  | > 10
Cc1ncc(C(c2ccccc2C#N)C(C)c2nc(C(=O)Nc3cnoc3)c(O)c(=O)n2C)cn1 (single isomer, unassigned) [Example 67 D2E2] |  | > 10
CC(c1nc(C(=O)Nc2cnoc2)c(O)c(=O)n1C)C(c1cnn(C)c1)c1ccc(F)cc1Cl (single isomer, unassigned) [Example 74 D1E1] |  | < 1
CC(c1nc(C(=O)Nc2cnoc2)c(O)c(=O)n1C)C(c1cnn(C)c1)c1ccc(F)cc1Cl (single isomer, unassigned) [Example 74 D1E2] |  | > 10
CC(c1nc(C(=O)Nc2cnoc2)c(O)c(=O)n1C)C(c1cnn(C)c1)c1ccc(F)cc1Cl (single isomer, unassigned) [Example 74 D2E1] |  | > 10
CC(c1nc(C(=O)Nc2cnoc2)c(O)c(=O)n1C)C(c1cnn(C)c1)c1ccc(F)cc1Cl (single isomer, unassigned) [Example 74 D2E2] |  | > 10
[2H]C([2H])([2H])n1cc(C(c2ccccc2C#N)C(C)c2nc(C(=O)Nc3cnoc3)c(O)c(=O)n2C)cn1 (single isomer, unassigned) [Example 76 D1E1] |  | < 1
